Experimental data as given in patent publication US20110152333A1, “3-CYANOPYRROLIDINYL-PHENYL-OXAZOLIDINONES AS ANTIBACTERIAL AGENTS” (FERRER INTERNACIONAL, S.A., priority 2008, published 2011).
Converted amounts (≈) assume the structure as drawn. Like-named read-outs stand apart in the source and are kept apart here.

Experiments:
S. aureus ATCC25923 MS = assay: MIC, micro dilution (NCCLS M7-A5); type: cell-based, Staphylococcus aureus
MRSE-128 = assay: MIC, micro dilution (NCCLS M7-A5); type: cell-based; conditions: Table 2
E. faecium ECFM-1 = assay: MIC, micro dilution (NCCLS M7-A5); type: cell-based; conditions: Enterococcus faecium, ECFM1, Table 2
S. aureus ATCC43300 MR = assay: MIC, micro dilution (NCCLS M7-A5); type: cell-based; conditions: Staphylococcus aureus, Table 2
E. faecium ATCC51559 MDR = assay: MIC, micro dilution (NCCLS M7-A5); type: cell-based, Enterococcus faecium
E. faecalis ECFL-1 = assay: MIC, micro dilution (NCCLS M7-A5); type: cell-based; conditions: Enterococcus faecalis, ECFL1, Table 2
E. faecium ECFM-2 = assay: MIC, micro dilution (NCCLS M7-A5); type: cell-based; conditions: Enterococcus faecium, ECFM2, Table 2
S. aureus LNZ-R 432 = assay: MIC, micro dilution (NCCLS M7-A5); type: cell-based; conditions: Staphylococcus aureus, LNZR432, Table 1
[1] = test system: S. aureus 1199B NorA overE; assay: MIC, micro dilution (NCCLS M7-A5); type: cell-based; conditions: Staphylococcus aureus
E. coli KAM-3 = assay: MIC, micro dilution (NCCLS M7-A5); type: cell-based; conditions: Escherichia coli, KAM3, Table 2
S. Haemolyticus = assay: MIC, micro dilution (NCCLS M7-A5); type: cell-based; conditions: Staphylococcus haemolyticus, Table 2
E. faecium LNZ-R LR-4 = assay: MIC, micro dilution (NCCLS M7-A5); type: cell-based, Enterococcus faecium
[2] = test system: E. faecalis ATCC51575 MDR; assay: MIC, micro dilution (NCCLS M7-A5); type: cell-based; conditions: Enterococcus faecalis, Table 2
E. faecium ATCC10541 = assay: MIC, micro dilution (NCCLS M7-A5); type: cell-based; conditions: Enterococcus faecium, Table 2
E. coli TG1 = assay: MIC, micro dilution (NCCLS M7-A5); type: cell-based; conditions: Escherichia coli, Table 2
[3] = test system: S. epidermidis ATCC12228 MR; assay: MIC, micro dilution (NCCLS M7-A5); type: cell-based; conditions: Staphylococcus epidermidis, Table 2
S. aureus 199B = assay: MIC, micro dilution (NCCLS M7-A5); type: cell-based; conditions: Staphylococcus aureus, Table 2
[4] = test system: S. aureus clinical strain cfr. methylase; assay: MIC, micro dilution (NCCLS M7-A5); type: cell-based; conditions: Staphylococcus aureus, Table 2
[5] = test system: S. pneumoniae ATCC49619 PR; assay: MIC, micro dilution (NCCLS M7-A5); type: cell-based, Streptococcus pneumoniae
[6] = test system: B. fragilis sp. fragilis ATCC25285; assay: MIC, micro dilution (NCCLS M7-A5); type: cell-based; conditions: Bacteroides fragilis, Table 1, Brucella Blood medium for anaerobic strains
H. influenzae ATCC49247 = assay: MIC, micro dilution (NCCLS M7-A5); type: cell-based, Haemophylus influenzae; conditions: Haemophilus influenzae, Table 1
S. aureus 1199 = assay: MIC, micro dilution (NCCLS M7-A5); type: cell-based; conditions: Staphylococcus aureus, Table 2
E. faecalis ATCC29212 = assay: MIC, micro dilution (NCCLS M7-A5); type: cell-based; conditions: Enterococcus faecalis, Table 2
MRSE = assay: MIC, micro dilution (NCCLS M7-A5); type: cell-based; conditions: Staphylococcus epidermidis, Table 2
[7] = test system: S. aureus ATCC33591 in vivo; assay: MIC, micro dilution (NCCLS M7-A5); type: cell-based; conditions: Staphylococcus aureus, Table 2
Staphyl. = assay: Geometric mean MIC, staphylococci; type: cell-based; conditions: Table 2, read-out: Geom. Mean MIC Staphyl.
[8] = test system: S. pneumoniae ATCC6303 in vivo; assay: MIC, micro dilution (NCCLS M7-A5); type: cell-based; conditions: Streptococcus pneumoniae, Table 2
Enteroc. = assay: Geometric mean MIC, enterococci; type: cell-based; conditions: Table 2, read-out: Geom. Mean MIC Enteroc.
E. faecalis ECFL-1-128 = assay: MIC, micro dilution (NCCLS M7-A5); type: cell-based; conditions: Enterococcus faecalis, ECFL1128, Table 2
E. faecium ECFM-1-128 = assay: MIC, micro dilution (NCCLS M7-A5); type: cell-based; conditions: Enterococcus faecium, ECFM1128, Table 2
[9] = test system: Moraxella catarrhalis HCI-78; assay: MIC, micro dilution (NCCLS M7-A5); type: cell-based; conditions: HCI78, Table 1, 5% CO2
E. faecalis ECFL-2 = assay: MIC, micro dilution (NCCLS M7-A5); type: cell-based; conditions: Enterococcus faecalis, ECFL2, Table 2
Gram+ = assay: Geometric mean MIC, Gram+; type: cell-based; conditions: Table 2, read-out: Geom. Mean MIC Gram+
[10] = test system: Moraxella, Pasteurella and Bacteroides spp.; conditions: background; cited from earlier work
[11] = Staphylococcus aureus, Table 1, read-out: MIC
[12] = Enterococcus faecium, Table 1, read-out: MIC
[13] = Streptococcus pneumoniae, Table 1, 5% CO2, read-out: MIC
[14] = Enterococcus faecium, Table 2, read-out: MIC

For `CC(=O)NC[C@H]1CN(c2ccc(N3CCC(C#N)C3)c(F)c2)C(=O)O1` (stereo partly drawn) [Ex. 1, N-{(5S)-3-[3-fluoro-4-(3-cyanopyrrolidin-1-yl)phenyl]-2-oxo-5-oxazolidinylmethyl}acetamide], the MIC (S. aureus ATCC25923 MS; [11]) was 0.5 µg/mL (≈ 1.44 µM), the MIC (S. aureus ATCC25923 MS; Table 2) was 0.5 µg/mL (≈ 1.44 µM) and the MIC (MRSE-128) was 8 µg/mL (≈ 23.1 µM). It also gave an MIC (E. faecium ECFM-1) of 0.5 µg/mL (≈ 1.44 µM), an MIC (S. aureus ATCC43300 MR) of 0.5 µg/mL (≈ 1.44 µM) and an MIC (E. faecium ATCC51559 MDR; [12]) of 0.25 µg/mL (≈ 0.722 µM). It also gave an MIC (E. faecium ATCC51559 MDR; Table 2) of 0.25 µg/mL (≈ 0.722 µM), an MIC (E. faecalis ECFL-1) of 0.125 µg/mL (≈ 0.361 µM) and an MIC (E. faecium ECFM-2) of 0.5 µg/mL (≈ 1.44 µM). It also gave an MIC (S. aureus LNZ-R 432) of 4 µg/mL (≈ 11.5 µM), an MIC [1] of 0.5 µg/mL (≈ 1.44 µM) and an MIC (E. coli KAM-3) of 1 µg/mL (≈ 2.89 µM). For the same molecule, the MIC (S. Haemolyticus) was 8 µg/mL (≈ 23.1 µM), the MIC (E. faecium LNZ-R LR-4; [12]) was 8 µg/mL (≈ 23.1 µM) and the MIC (E. faecium LNZ-R LR-4; Table 2) was 8 µg/mL (≈ 23.1 µM). For the same molecule, the MIC [2] was 0.25 µg/mL (≈ 0.722 µM), the MIC (E. faecium ATCC10541) was 0.25 µg/mL (≈ 0.722 µM) and the MIC (E. coli TG1) was 32 µg/mL (≈ 92.4 µM). For the same molecule, the MIC [3] was 0.25 µg/mL (≈ 0.722 µM), the MIC (S. aureus 199B) was 1 µg/mL (≈ 2.89 µM) and the MIC [4] was 4 µg/mL (≈ 11.5 µM). The MIC [5, 13] was 0.25 µg/mL (≈ 0.722 µM), the MIC ([5]; Table 2) was 0.25 µg/mL (≈ 0.722 µM) and the MIC [6] was 0.5 µg/mL (≈ 1.44 µM). For the same molecule, the MIC (H. influenzae ATCC49247) was 4 µg/mL (≈ 11.5 µM), the MIC (S. aureus 1199) was 1 µg/mL (≈ 2.89 µM) and the MIC (E. faecalis ATCC29212) was 0.25 µg/mL (≈ 0.722 µM). It also gave an MIC (MRSE) of 0.25 µg/mL (≈ 0.722 µM), an MIC [7] of 0.25 µg/mL (≈ 0.722 µM) and an MIC (Staphyl.) of 0.4 µg/mL (≈ 1.15 µM). It also gave an MIC [8] of 0.25 µg/mL (≈ 0.722 µM), an MIC (Enteroc.) of 0.3 µg/mL (≈ 0.866 µM) and an MIC (E. faecalis ECFL-1-128) of 32 µg/mL (≈ 92.4 µM). It also gave an MIC (E. faecium ECFM-1-128) of 32 µg/mL (≈ 92.4 µM), an MIC [9] of 2 µg/mL (≈ 5.77 µM) and an MIC (E. faecalis ECFL-2) of 1 µg/mL (≈ 2.89 µM).
`CC(=O)NC[C@H]1CN(c2ccc(N3CCC(O)C3)c(F)c2)C(=O)O1` (stereo partly drawn) [Ex. 5, (S)—N-[[3-[4-(3-hydroxypyrrolidinyl)-3-fluorophenyl]-2-oxo-5-oxazolidinyl]methyl]acetamide, reference compound] showed an MIC (S. aureus ATCC25923 MS; Staphylococcus aureus, Table 2, read-out: MIC) of 2 µg/mL (≈ 5.93 µM), an MIC (MRSE-128) of 32 µg/mL (≈ 94.9 µM) and an MIC (E. faecium ECFM-1) of 2 µg/mL (≈ 5.93 µM). The MIC (S. aureus ATCC43300 MR) was 1 µg/mL (≈ 2.96 µM), the MIC (E. faecium ATCC51559 MDR; [14]) was 1 µg/mL (≈ 2.96 µM) and the MIC (E. faecalis ECFL-1) was 2 µg/mL (≈ 5.93 µM). The MIC (E. faecium ECFM-2) was 2 µg/mL (≈ 5.93 µM), the MIC (Gram+) was 1.4 µg/mL (≈ 4.15 µM) and the MIC [1] was 1 µg/mL (≈ 2.96 µM). For the same molecule, the MIC (E. coli KAM-3) was 4 µg/mL (≈ 11.9 µM), the MIC (S. Haemolyticus) was 32 µg/mL (≈ 94.9 µM) and the MIC (E. faecium LNZ-R LR-4; [14]) was 32 µg/mL (≈ 94.9 µM). The MIC [2] was 2 µg/mL (≈ 5.93 µM), the MIC (E. faecium ATCC10541) was 2 µg/mL (≈ 5.93 µM) and the MIC (E. coli TG1) was 64 µg/mL (≈ 190 µM). It also gave an MIC [3] of 1 µg/mL (≈ 2.96 µM), an MIC (S. aureus 199B) of 2 µg/mL (≈ 5.93 µM) and an MIC [4] of 16 µg/mL (≈ 47.4 µM). The MIC ([5]; Streptococcus pneumoniae, Table 2, read-out: MIC) was 1 µg/mL (≈ 2.96 µM), the MIC (S. aureus 1199) was 2 µg/mL (≈ 5.93 µM) and the MIC (E. faecalis ATCC29212) was 2 µg/mL (≈ 5.93 µM). For the same molecule, the MIC (MRSE) was 1 µg/mL (≈ 2.96 µM), the MIC [7] was 2 µg/mL (≈ 5.93 µM) and the MIC (Staphyl.) was 1.2 µg/mL (≈ 3.56 µM). It also gave an MIC [8] of 0.5 µg/mL (≈ 1.48 µM), an MIC (Enteroc.) of 1.7 µg/mL (≈ 5.04 µM) and an MIC (E. faecalis ECFL-1-128) of 64 µg/mL (≈ 190 µM). The MIC (E. faecium ECFM-1-128) was 64 µg/mL (≈ 190 µM) and the MIC (E. faecalis ECFL-2) was 4 µg/mL (≈ 11.9 µM).
`CC(=O)NC[C@H]1CN(c2ccc(N3CCOCC3)c(F)c2)C(=O)O1` [Linezolid, N-[[(5S)-3-[3-fluoro-4-(4-morpholinyl)phenyl]-2-oxo-5-oxazolidinyl]methyl]acetamide, reference compound] showed an MIC (S. aureus ATCC25923 MS; [11]) of 1 µg/mL (≈ 2.96 µM), an MIC (E. faecium ATCC51559 MDR; [12]) of 0.5 µg/mL (≈ 1.48 µM) and an MIC (S. aureus LNZ-R 432) of 16 to 32 µg/mL (≈ 47.4 to 94.9 µM). It also gave an MIC (E. faecium LNZ-R LR-4; [12]) of 64 µg/mL (≈ 190 µM), an MIC [5, 13] of 1 µg/mL (≈ 2.96 µM) and an MIC [6] of 2 µg/mL (≈ 5.93 µM). For the same molecule, the MIC (H. influenzae ATCC49247) was 16 µg/mL (≈ 47.4 µM), the MICs [10] was 2 to 8 µg/mL and the MIC [9] was 2 µg/mL (≈ 5.93 µM).
